{
  "source": "ChEMBL document CHEMBL1150637",
  "about": "“African elephant sesquiterpenes. II. Identification and synthesis of new derivatives of 2,3-dihydrofarnesol” (J Nat Prod, 2002)",
  "tested_on": "Mycobacterium tuberculosis",
  "assay": "Antimycobacterial activity against Mycobacterium tuberculosis by radiorespirometric bioassay",
  "type": "functional, organism-based",
  "note": "Calls of active or inactive are those of the source. The calls are words filed in the database; no cut-off is given here.",
  "data": [
    {"smiles": "CC(C)=CCC/C(C)=C/CC/C(C)=C/CO", "values": [
      {"measurement": "Activity", "result": "Active"}
    ]}
  ]
}
